Measured values reported in BindingDB's records for doi:10.1021/jm050519b (Oxagen, 2005).

Test: Concentration required to inhibit PGD-2 induced change in the shape of human eosinophils expressing CRTH2

Row | SMILES | IC50
1 | Cc1c(CC(=O)O)c2cc(F)ccc2n1S(=O)(=O)c1ccc(Cl)cc1 [[1-(4-Chloro-benzenesulfonyl)-5-fluoro-2-methyl-1H-indol-3-yl]-acetic acid] | 908 nM
2 | Cc1c(CC(=O)O)c2cc(F)ccc2n1S(=O)(=O)c1ccc(S(C)(=O)=O)cc1 [[5-Fluoro-1-(4-methanesulfonyl-benzenesulfonyl)-2-methyl-1H-indol-3-yl]-acetic acid] | 74 nM
